Laboratory results taken from article PMC12198368, “The mitochondrial methylation potential gates mitoribosome assembly” (Nature Communications, 2025).

How the values were obtained:
Test in all cases: cryo-EM structure of the complex
[1] = biological target: T1, GTP-binding protein 10, GTPBP10 (Mus musculus, UniProt Q8K013); settings: 0.5 mM GMPPNP in lysis and resuspension buffers, 10 mM Mg(OAc)2, BS3 cross-linked; relatively poor local resolution, ligand placed in binding pocket; mtLSU states B1 and B2
T1 construct: BS3 cross-linked
T1 sequence (Q8K013 1-366): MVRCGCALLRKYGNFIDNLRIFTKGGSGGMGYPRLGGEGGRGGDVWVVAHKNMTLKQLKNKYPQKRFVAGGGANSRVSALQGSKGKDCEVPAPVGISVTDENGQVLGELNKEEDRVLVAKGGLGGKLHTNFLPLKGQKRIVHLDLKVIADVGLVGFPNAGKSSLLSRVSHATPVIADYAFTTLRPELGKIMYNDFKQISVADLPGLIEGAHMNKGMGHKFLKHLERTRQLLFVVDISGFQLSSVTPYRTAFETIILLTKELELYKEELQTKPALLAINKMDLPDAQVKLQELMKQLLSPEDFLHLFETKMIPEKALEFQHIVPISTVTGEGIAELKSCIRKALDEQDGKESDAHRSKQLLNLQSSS

[2] = biological target: T2, GTP-binding protein 7 GTPBP7 (Mus musculus, UniProt Q8R2R6); settings: 0.5 mM GMPPNP in lysis and resuspension buffers, 10 mM Mg(OAc)2, BS3 cross-linked; pre-hydrolysis (closed) conformation; mtLSU states B1 and B2
T2 construct: gene Mtg1; BS3 cross-linked
T2 sequence (Q8R2R6 1-326): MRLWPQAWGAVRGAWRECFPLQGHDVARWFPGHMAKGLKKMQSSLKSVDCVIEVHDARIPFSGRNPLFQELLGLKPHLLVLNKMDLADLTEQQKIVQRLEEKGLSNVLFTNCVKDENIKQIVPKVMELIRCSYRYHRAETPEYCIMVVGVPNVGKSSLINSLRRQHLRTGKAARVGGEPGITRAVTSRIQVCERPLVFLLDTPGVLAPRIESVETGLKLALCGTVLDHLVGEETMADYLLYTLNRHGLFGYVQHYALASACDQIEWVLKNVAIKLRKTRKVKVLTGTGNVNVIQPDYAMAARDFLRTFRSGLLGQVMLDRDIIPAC

[3] = biological target: rRNA methyltransferase 2, MRM2 (Mus musculus, UniProt Q9CPY0); format: binding; settings: mtLSU state D; endogenous ligand, not added; SAM-depleted mitochondria; native sample, no GMPPNP
Chain of rRNA methyltransferase 2, MRM2 (Q9CPY0 25-246): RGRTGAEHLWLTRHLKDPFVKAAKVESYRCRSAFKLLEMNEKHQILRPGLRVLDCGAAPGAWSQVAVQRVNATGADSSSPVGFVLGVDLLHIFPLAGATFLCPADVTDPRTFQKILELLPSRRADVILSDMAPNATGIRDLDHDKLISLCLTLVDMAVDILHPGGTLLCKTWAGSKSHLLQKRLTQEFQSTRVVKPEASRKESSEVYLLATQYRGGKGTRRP

Structure (SMILES)	cryo-EM structure of the complex [1]	cryo-EM structure of the complex [2]	cryo-EM structure of the complex [3]
Nc1nc2c(ncn2[C@@H]2O[C@H](COP(=O)(O)OP(=O)(O)NP(=O)(O)O)[C@@H](O)[C@H]2O)c(=O)[nH]1 [GMPPNP]	A molecule of GMPPNP was placed in the binding pockets of GTPBP7 and GTPBP10.	GTPBP7 adopts its GMPPNP-bound pre-hydrolysis conformation as observed previously	–
Nc1ncnc2c1ncn2[C@@H]1O[C@H](CSCC[C@H](N)C(=O)O)[C@@H](O)[C@H]1O [SAH]	–	–	A molecule of SAH was placed in the binding pocket of MRM2
